We go through six compounds from US9024043B2, “Pimarane diterpenes from Anisochilus verticillatus” (Council of Scientific & Industrial Research, priority 2011, dated 2015).

For test [1], the system named is Mycobacterium tuberculosis H37Ra. The experiment in a line: Anti-mycobacterial activity (XTT-menadione assay). The conditions noted are these: for inhibition at 100 µg/mL: read-out: % inhibition at 100 μg/ml against M. tuberculosis (footnote c); for antimycobacterial activity against M. tuberculosis (in words): in vitro; for IC90: concentration exhibiting 90% inhibition against growth, H37Ra, 8th day of incubation, read-out: IC90 value determined against M. tuberculosis. The format is cell-based. The method, then: All the isolated compounds and whole acetone extract were tested for their in vitro effect against Mycobacterium tuberculosis H37Ra culture maintained in-house.
M. tuberculosis, H37Ra (ATCC 25177) cells were grown to logarithmic phase (O.D.595˜1.0) in a defined medium (M. pheli medium) under aerobic conditions in a shaker incubator (Thermo Electron Corporation Model 481) maintained at 150 rpm and 37° C. After growth, the culture was sonicated for 2 min using a water bath sonicator. Sonicated cells were used for inoculation in micro plate wells. 250 μl of the culture containing ˜10 5 cells/ml was added to each well of 96 well plates. 2.5 μl of the test samples dissolved in DMSO was added to the wells to attain a final concentration of 100 ug/ml respectively for the preliminary screening. Dose response curve of the active compounds was carried out by making serial dilutions of the test samples. Then, the plate was incubated in a CO2 incubator at 37° C. The plate was taken out on the 8th day of incubation to measure the viable cell counts. The optical density of the culture was measured before addition of XTT at 470 nm which was served as a blank for the MIC calculations. 200 μM XTT was added and incubated for 20 min at 37° C. after shaking for 1 min. After 20 min of incubation, 60 μM menadione was added and incubated at 37° C. for 40 min after mixing of 1 min. Finally, the optical density of the suspension was measured at 470 nm by using microplate reader.

Test [2] concerns THP-1 (Human acute leukemia cells) cell lines. The experiment in a line: Cytotoxicity studies (MTT assay). The test is classed as cell-based. Particulars: for inhibition at 100 µg/mL: Homo sapiens, THP-1, 100 μg/ml, 72 h, MTT, read-out: % Inhibition on Thp-1 cell line at 100 μg/ml. The method, then:
Compounds 3 was tested at IC90 values and also at higher concentration, 100 μg/ml, for their in vitro cytotoxicity against THP-1 (Human acute leukemia cells) cell lines procured from National Cell Repository, India.
About 10,000 cells were taken per well in 96-well tissue culture plates and treated with compound 3 at IC90 values and also at higher concentration, 100 μg/ml for 72 h. Vehicle control (DMSO, 1%) and positive control (Paclitaxel, 100 μg/ml) were run simultaneously. Cell proliferation was assessed with 10 μl from 5 mg/ml stock solution of tetrazolium salt (MTT) dissolved in cell culture medium and subsequently incubated for additional 1 h at 37° C., 5% of CO2 and 95% humidity in incubator. The violet coloured formazan crystals formed were solubilized in 200 μl of isopropanol and incubated for another 4 h. The optical density was read on a micro plate reader (Spectramax plus384 plate reader, Molecular Devices Inc) at 490 nm filter against a blank prepared from cell-free wells. Absorbance given by cells treated with the carrier DMSO alone was taken as 100% cell growth. All experiments were performed in triplicate, and the quantitative value was expressed as the average±standard deviation.

The mark [3] stands for this setting: Mycobacterium tuberculosis, H37RA.

In brackets after ≈: the same amount, converted by molar mass. Entries after “also recorded” stand apart in the source; their conditions may differ.

Take `C=C[C@@]1(C)CC[C@@]2(O)[C@]3(CC[C@@]4(OO3)C(C)(C)CCC[C@]24C)C1` [Compound 1, pimarane-5,8-peroxide]: the inhibition at 100 µg/mL in test [1] (setting [3]) is 42.9%. Moreover, the “antimycobacterial activity against M. tuberculosis (in words)” value (“antimycobacterial activity” for short) in test [1] was “effective”.

For `C=C[C@@]1(C)CC[C@H]2[C@@](O)(C[C@@H](O)[C@@]3(O)C(C)(C)CCC[C@]23C)C1` [Compound 2, pimarane-triol], the 90% effect concentration (IC90) in test [1] (Mycobacterium tuberculosis) turned out to be 20 µg/mL (≈ 62 µM). For the same compound, the “antimycobacterial activity” value in test [1] is reported as “effective”.

Regarding `C=C[C@@]1(C)CC[C@@]2(O)[C@@](O)(C[C@@H](O)[C@@]3(O)C(C)(C)CCC[C@]23C)C1` [Compound 3, pimarane-tetrol], the inhibition at 100 µg/mL turned out to be 35% in test [1] (setting [3]) and 57.2% in test [2]. The “antimycobacterial activity” value in test [1] was “effective”. The “anti-cancer activity against THP-1 cell lines (in words)” value in test [2] (in vitro) was “showed anti-cancer activity; also recorded: comparable to that of known standard drug, paclitaxel”.

Consider `C=CCc1ccc(O)c(O)c1` [Compound 4, Hydroxychavicol], for which, in test [1] (Mycobacterium tuberculosis, H37RA, read-out: IC50 against growth of M. tuberculosis (footnote d)), the 50% inhibitory concentration (IC50) came out at 12.5 µg/mL (≈ 83.2 µM). Also, the “antimycobacterial activity” value in test [1] is “effective”.

In the case of `NNC(=O)c1ccncc1` [Isoniazid, reference compound], the 90% effect concentration (IC90) in test [1] (Mycobacterium tuberculosis) was found to be 0.05 ± 0.003 µg/mL (≈ 0.365 µM).

As for `CC(=O)O[C@H]1C(=O)[C@@]2(C)[C@H]([C@H](OC(=O)c3ccccc3)[C@]3(O)C[C@H](OC(=O)[C@H](O)[C@@H](NC(=O)c4ccccc4)c4ccccc4)C(C)=C1C3(C)C)[C@]1(OC(C)=O)CO[C@@H]1C[C@@H]2O` [Paclitaxel, reference compound], in test [2], the inhibition at 100 µg/mL is 61%.
